# Measured values published in ChEMBL document CHEMBL5634154, “Drug repurposing and structure-based discovery of new PDE4 and PDE5 inhibitors” (Eur J Med Chem, 2023).
# Structures can show the parent of a compound that is named as a salt.
# How the values were obtained:
# [1] = biological target: cGMP-specific 3',5'-cyclic phosphodiesterase (Homo sapiens, UniProt O76074); assay: Inhibition of his-tagged recombinant human PDE5A catalytic domain (E535 to Q860 residues) expressed in Escherichia coli BL21(DE3) using [3H]-cGMP as substrate incubated for 10 mins by SPA assay
# [2] = biological target: 3',5'-cyclic-AMP phosphodiesterase 4D (Homo sapiens, UniProt Q08499); assay: Inhibition of his-tagged recombinant human PDE4D catalytic domain (T86 to S413 residues) expressed in Escherichia coli BL21(DE3) using [3H]-cAMP as substrate incubated for 10 mins by SPA assay
# [3] = biological target: High affinity 3',5'-cyclic-AMP phosphodiesterase 7A (Homo sapiens, UniProt Q13946); assay: Inhibition of his-tagged recombinant human PDE7A catalytic domain (S130 to S482 residues) expressed in Escherichia coli BL21(DE3) using [3H]-cAMP as substrate incubated for 10 mins by SPA assay
# [4] = biological target: cGMP-inhibited 3',5'-cyclic phosphodiesterase 3A (Homo sapiens, UniProt Q14432); assay: Inhibition of full-length recombinant human PDE3A using [3H]-cGMP as substrate incubated for 10 mins by SPA assay
# [5] = biological target: T1, cGMP-dependent 3',5'-cyclic phosphodiesterase (Homo sapiens, UniProt O00408); assay: Inhibition of full-length recombinant human PDE2A using [3H]-cGMP as substrate incubated for 10 mins by SPA assay
# [6] = biological target: T2, Dual specificity calcium/calmodulin-dependent 3',5'-cyclic nucleotide phosphodiesterase 1A (Homo sapiens, UniProt P54750); assay: Inhibition of full-length recombinant human PDE1A using [3H]-cGMP as substrate incubated for 10 mins by SPA assay
# [7] = biological target: High affinity cAMP-specific and IBMX-insensitive 3',5'-cyclic phosphodiesterase 8A (Homo sapiens, UniProt O60658); assay: Inhibition of full-length recombinant human PDE8A using [3H]-cAMP as substrate incubated for 10 mins by SPA assay
# [8] = biological target: High affinity cGMP-specific 3',5'-cyclic phosphodiesterase 9A (Homo sapiens, UniProt O76083); assay: Inhibition of his-tagged recombinant human PDE9A catalytic domain (P181 to K506 residues) expressed in Escherichia coli BL21(DE3) using [3H]-cGMP as substrate incubated for 10 mins by SPA assay
# [9] = biological target: Dual 3',5'-cyclic-AMP and -GMP phosphodiesterase 11A (Homo sapiens, UniProt Q9HCR9); assay: Inhibition of full-length recombinant human PDE11A using [3H]-cAMP as substrate incubated for 10 mins by SPA assay
# [10] = biological target: cAMP and cAMP-inhibited cGMP 3',5'-cyclic phosphodiesterase 10A (Homo sapiens, UniProt Q9Y233); assay: Inhibition of his-tagged recombinant human PDE10A catalytic domain (S439 to A766 residues) expressed in Escherichia coli BL21(DE3) using [3H]-cAMP as substrate incubated for 10 mins by SPA assay
# [11] = species: Homo sapiens; assay: Selectivity index, ratio of IC50 for full-length recombinant human PDE6C using [3H]-cGMP as substrate to IC50 for his-tagged recombinant human PDE4D catalytic domain (T86 to S413 residues) expressed in Escherichia coli BL21(DE3) using [3H]-cAMP as substrate
# [12] = biological target: T2, Dual specificity calcium/calmodulin-dependent 3',5'-cyclic nucleotide phosphodiesterase 1A; assay: Inhibition of full-length recombinant human PDE1A using [3H]-cGMP as substrate at 1 uM incubated for 10 mins by SPA assay relative to control
# [13] = biological target: T1, cGMP-dependent 3',5'-cyclic phosphodiesterase; assay: Inhibition of full-length recombinant human PDE2A using [3H]-cGMP as substrate at 1 uM incubated for 10 mins by SPA assay relative to control
# [14] = biological target: Cone cGMP-specific 3',5'-cyclic phosphodiesterase subunit alpha' (Homo sapiens, UniProt P51160); assay: Inhibition of full-length recombinant human PDE6C using [3H]-cGMP as substrate incubated for 10 mins by SPA assay
# T1 sequence (O00408 whole entry): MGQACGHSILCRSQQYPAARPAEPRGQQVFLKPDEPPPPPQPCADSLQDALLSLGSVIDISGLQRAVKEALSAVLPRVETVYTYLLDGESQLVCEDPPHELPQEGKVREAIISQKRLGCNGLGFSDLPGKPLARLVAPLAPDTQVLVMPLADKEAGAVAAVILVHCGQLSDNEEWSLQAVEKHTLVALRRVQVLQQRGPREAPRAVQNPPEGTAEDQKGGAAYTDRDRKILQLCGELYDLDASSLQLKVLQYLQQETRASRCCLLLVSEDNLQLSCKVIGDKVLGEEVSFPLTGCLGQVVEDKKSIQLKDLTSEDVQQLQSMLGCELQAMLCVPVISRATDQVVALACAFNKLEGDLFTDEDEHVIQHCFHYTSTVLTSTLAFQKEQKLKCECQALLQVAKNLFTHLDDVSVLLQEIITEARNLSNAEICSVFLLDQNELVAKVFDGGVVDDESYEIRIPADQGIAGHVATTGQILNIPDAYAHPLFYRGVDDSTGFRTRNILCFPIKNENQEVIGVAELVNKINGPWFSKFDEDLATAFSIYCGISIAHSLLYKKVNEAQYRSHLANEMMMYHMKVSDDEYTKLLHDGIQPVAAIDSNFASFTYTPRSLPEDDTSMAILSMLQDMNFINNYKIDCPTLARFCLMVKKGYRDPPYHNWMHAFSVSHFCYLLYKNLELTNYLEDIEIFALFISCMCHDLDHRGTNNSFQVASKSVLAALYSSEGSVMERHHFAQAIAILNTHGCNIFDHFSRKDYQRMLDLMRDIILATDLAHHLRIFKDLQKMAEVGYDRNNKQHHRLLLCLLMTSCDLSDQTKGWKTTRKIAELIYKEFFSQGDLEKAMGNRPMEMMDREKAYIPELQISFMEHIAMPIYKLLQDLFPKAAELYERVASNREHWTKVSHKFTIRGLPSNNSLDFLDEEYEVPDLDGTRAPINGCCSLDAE
# Chain of Dual 3',5'-cyclic-AMP and -GMP phosphodiesterase 11A (Q9HCR9 whole entry, the tested form may be a part): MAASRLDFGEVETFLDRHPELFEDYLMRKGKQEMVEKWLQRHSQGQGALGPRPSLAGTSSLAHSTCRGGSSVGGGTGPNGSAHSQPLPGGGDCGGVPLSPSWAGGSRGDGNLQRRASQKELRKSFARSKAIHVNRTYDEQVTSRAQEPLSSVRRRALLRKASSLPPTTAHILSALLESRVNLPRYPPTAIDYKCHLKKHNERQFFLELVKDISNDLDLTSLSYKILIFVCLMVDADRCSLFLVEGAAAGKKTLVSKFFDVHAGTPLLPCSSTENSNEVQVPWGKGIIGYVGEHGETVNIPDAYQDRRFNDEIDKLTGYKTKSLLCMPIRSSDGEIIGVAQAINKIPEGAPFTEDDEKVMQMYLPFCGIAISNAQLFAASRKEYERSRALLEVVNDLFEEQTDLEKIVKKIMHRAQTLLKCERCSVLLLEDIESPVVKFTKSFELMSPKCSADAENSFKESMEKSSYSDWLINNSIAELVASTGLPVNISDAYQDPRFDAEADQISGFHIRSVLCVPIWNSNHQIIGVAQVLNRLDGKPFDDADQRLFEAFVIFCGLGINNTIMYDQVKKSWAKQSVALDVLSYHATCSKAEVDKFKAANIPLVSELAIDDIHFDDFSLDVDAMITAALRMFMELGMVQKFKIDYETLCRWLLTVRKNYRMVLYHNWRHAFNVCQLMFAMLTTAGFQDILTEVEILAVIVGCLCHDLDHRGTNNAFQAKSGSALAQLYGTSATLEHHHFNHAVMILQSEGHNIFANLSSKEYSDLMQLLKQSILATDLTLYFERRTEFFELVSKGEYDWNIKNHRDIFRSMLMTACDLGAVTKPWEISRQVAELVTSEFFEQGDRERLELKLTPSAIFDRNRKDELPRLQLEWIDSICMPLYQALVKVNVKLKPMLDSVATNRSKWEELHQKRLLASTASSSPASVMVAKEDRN
# T2 sequence (P54750 whole entry): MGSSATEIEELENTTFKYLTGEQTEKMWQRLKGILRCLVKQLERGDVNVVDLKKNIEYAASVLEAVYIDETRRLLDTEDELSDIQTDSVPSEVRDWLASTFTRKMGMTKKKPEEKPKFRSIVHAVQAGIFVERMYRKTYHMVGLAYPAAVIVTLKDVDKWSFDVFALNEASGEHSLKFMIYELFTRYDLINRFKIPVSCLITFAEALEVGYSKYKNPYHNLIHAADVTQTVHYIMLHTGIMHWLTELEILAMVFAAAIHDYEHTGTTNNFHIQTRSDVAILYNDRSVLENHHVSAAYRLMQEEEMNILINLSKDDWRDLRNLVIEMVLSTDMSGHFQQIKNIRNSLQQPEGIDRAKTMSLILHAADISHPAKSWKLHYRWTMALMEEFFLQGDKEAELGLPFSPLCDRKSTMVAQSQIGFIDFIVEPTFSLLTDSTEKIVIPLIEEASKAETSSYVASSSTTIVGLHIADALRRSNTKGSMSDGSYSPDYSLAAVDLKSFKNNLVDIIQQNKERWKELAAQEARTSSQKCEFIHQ
# Chain of cGMP-inhibited 3',5'-cyclic phosphodiesterase 3A (Q14432 whole entry): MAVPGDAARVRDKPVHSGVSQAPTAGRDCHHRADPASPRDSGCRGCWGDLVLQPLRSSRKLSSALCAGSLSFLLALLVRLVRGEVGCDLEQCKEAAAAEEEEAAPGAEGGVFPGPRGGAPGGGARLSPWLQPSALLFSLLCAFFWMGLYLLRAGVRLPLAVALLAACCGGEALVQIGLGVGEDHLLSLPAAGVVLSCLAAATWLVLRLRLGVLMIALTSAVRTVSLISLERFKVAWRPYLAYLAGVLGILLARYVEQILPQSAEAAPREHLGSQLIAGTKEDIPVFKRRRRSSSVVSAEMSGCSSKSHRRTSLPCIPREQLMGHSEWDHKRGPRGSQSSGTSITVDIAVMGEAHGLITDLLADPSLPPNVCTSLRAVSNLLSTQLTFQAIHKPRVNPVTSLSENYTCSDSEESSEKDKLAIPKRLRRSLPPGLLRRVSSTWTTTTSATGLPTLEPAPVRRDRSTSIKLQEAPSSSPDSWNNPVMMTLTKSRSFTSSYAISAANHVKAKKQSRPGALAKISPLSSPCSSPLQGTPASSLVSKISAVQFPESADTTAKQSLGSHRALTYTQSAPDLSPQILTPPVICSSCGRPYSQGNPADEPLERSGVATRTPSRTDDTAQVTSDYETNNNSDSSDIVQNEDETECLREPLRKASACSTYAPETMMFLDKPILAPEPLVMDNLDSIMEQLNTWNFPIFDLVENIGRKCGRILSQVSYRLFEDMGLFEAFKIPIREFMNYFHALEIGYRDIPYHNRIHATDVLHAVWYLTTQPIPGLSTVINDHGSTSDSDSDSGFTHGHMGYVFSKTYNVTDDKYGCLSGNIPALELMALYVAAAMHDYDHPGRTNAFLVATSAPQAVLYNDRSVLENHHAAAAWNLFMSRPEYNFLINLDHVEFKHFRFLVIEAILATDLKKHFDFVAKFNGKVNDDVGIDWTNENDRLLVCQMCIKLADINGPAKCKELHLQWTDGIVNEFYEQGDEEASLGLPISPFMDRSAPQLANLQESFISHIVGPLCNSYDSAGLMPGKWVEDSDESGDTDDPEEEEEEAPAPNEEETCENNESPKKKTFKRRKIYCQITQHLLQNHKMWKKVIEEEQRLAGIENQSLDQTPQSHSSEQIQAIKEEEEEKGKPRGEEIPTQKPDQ
# Chain of High affinity cGMP-specific 3',5'-cyclic phosphodiesterase 9A (O76083 whole entry, the tested form may be a part): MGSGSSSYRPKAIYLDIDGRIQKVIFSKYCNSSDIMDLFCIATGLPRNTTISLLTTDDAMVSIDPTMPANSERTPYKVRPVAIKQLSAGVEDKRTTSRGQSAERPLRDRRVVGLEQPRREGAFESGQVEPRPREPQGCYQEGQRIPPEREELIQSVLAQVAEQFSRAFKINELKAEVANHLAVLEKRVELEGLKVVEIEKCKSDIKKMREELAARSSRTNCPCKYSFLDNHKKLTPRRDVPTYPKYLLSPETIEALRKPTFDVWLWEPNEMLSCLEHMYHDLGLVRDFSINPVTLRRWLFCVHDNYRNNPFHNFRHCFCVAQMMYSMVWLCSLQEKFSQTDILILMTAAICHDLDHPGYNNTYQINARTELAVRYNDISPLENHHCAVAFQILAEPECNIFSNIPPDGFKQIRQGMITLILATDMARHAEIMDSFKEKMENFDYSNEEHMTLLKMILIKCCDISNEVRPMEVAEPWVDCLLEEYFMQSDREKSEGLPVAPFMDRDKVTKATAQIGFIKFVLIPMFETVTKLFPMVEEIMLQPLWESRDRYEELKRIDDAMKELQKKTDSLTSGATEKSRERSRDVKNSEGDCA
# Chain of High affinity cAMP-specific and IBMX-insensitive 3',5'-cyclic phosphodiesterase 8A (O60658 whole entry, the tested form may be a part): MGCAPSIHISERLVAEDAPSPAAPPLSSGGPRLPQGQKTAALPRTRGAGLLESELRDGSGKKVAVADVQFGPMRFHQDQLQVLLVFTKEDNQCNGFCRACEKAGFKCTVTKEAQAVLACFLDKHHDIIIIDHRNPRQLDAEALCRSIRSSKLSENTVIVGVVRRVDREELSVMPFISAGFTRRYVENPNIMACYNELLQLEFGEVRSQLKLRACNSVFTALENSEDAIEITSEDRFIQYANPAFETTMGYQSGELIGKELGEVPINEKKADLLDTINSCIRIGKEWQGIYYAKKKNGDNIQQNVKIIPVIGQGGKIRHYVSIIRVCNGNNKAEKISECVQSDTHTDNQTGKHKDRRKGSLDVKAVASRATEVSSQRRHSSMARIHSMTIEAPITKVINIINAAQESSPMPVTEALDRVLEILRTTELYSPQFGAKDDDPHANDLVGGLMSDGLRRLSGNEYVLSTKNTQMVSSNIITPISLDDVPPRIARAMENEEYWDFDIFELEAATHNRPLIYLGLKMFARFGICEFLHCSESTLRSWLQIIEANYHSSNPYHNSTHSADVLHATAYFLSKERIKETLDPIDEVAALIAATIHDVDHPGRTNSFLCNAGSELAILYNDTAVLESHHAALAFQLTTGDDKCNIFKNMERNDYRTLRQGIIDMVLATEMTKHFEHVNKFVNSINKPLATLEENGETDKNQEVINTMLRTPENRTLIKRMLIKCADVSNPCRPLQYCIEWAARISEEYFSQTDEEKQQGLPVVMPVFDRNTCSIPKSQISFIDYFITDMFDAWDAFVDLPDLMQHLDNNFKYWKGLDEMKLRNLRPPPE
Structure (SMILES),IC50 [1] [nM],IC50 [2] [nM],IC50 [3] [µM],IC50 [4] [µM],IC50 [7] [µM],IC50 [8] [µM],IC50 [9] [µM],IC50 [10] [nM],also measured
COc1ccc(CNc2nc(N(CCO)CCO)nc3c2ncn3C(C)C)cc1,230,420,> 10,> 10,> 10,> 10,> 1,1290,IC50 [5]: > 1000 nM; IC50 [6]: > 1 µM
COc1ccc(CNc2nc(N(CCO)CCO)nc3c2cnn3C(C)C)cc1,120,2250,> 10,> 1,> 10,> 10,> 10,> 1000,Ratio IC50 [11]: 1; inhibition [12]: 59.6%; inhibition [13]: 67.9%; IC50 [14]: 160 nM
COc1ccc(CNc2nc(N(CCO)CCO)nc3c2[nH]c(=O)n3C(C)C)cc1,40,1780,> 10,> 10,> 10,> 10,> 10,> 10000,Ratio IC50 [11]: 2; IC50 [5]: > 1000 nM; IC50 [6]: > 10 µM; IC50 [14]: 90 nM
O=C(O)c1ccc2c(c1)nc(Nc1cccc(Cl)c1)c1ccncc12 [SILMITASERTIB],–,1000,–,–,–,–,–,–,–
COc1ccc2c(c1)CC[C@H]1[C@H]3CC[C@H](NCCCCCCN4C(=O)C=CC4=O)[C@@]3(C)CC[C@@H]21,–,940,–,–,–,–,–,–,–
Cn1cc(-c2ccncc2)c(-c2ccc(OCc3ccc4ccccc4n3)cc2)n1 [MARDEPODECT],–,1740,–,–,–,–,–,–,–
CCOc1ccn(-c2ccc(F)cc2)c(=O)c1C(=O)Nc1ccc(Oc2ccnc(N)c2Cl)c(F)c1 [BMS-777607],–,2460,–,–,–,–,–,–,–
COc1ncc(-c2ccc3nccc(-c4ccnnc4)c3c2)cc1NS(=O)(=O)c1ccc(F)cc1F [OMIPALISIB],–,1770,–,–,–,–,–,–,–
CCOc1ccc(Cc2nccc3cc(OCC)c(OCC)cc23)cc1OCC [ETHAVERINE HYDROCHLORIDE],–,410,–,–,–,–,–,–,–
